Measurements taken from publication PMC12040169 (PLOS Biology, 2025).

Assay: in vitro
Details: human, hela cells, % viability
For COc1ccc2c(c1)c(CN1CCCN(S(=O)(=O)c3ccc(-c4ccccc4)cc3)CC1)cn2C [CBK063125], the viability at 28.5 h, 10 µM was 104%.
In the case of O=S(=O)(c1ccc(-c2ccccc2)cc1)N1CCCN(Cc2cccnc2N2CCOCC2)CC1 [CBK063127], the viability at 28.5 h, 10 µM was 99.5%.
For CCC(C)(C)c1ccc(S(=O)(=O)N2CCN(CCCC#N)CC2)cc1 [CBK063134], the viability at 28.5 h, 10 µM was 93.4%.
Work on CCC(C)(C)c1ccc(S(=O)(=O)N2CCN(CCCOC3CCCCO3)CC2)cc1 (stereo not drawn) [CBK063135] yielded a viability at 28.5 h, 10 µM of 96.9%.
In the case of O=S(=O)(c1ccc(-c2ccccc2)cc1)N1CCCN(CCCOC2CCCCO2)CC1 (stereo not drawn) [CBK063137], the viability at 28.5 h, 10 µM was 114%.
CCCC(=O)c1ccc(S(=O)(=O)N2CCN(Cc3cccc(Br)c3)CC2)cc1 [CBK063146] gave a viability at 28.5 h, 10 µM of 87.4%.
Work on CCCC(=O)c1ccc(S(=O)(=O)N2CCN(Cc3ccc(C(C)=O)cc3)CC2)cc1 [CBK063159] yielded a viability at 28.5 h, 10 µM of 107%.
Molecule CCCC(=O)c1ccc(S(=O)(=O)N2CCN(Cc3csc(-c4ccccc4)n3)CC2)cc1 [CBK063161] has a viability at 28.5 h, 10 µM of 93.3%.
Molecule CCCC(=O)c1ccc(S(=O)(=O)N2CCN(Cc3ccc(F)c(C(F)(F)F)c3)CC2)cc1 [CBK063162] has a viability at 28.5 h, 10 µM of 101%.
With O=S(=O)(c1ccc(C(F)(F)F)cc1Cl)N1CCN(Cc2cccc(Br)c2)CC1 [CBK063163] the viability at 28.5 h, 10 µM was 83.7%.
In the case of COc1ccc2[nH]c3c(c2c1)CCN(S(C)(=O)=O)C31CCN(CCOc2ccccc2)C1 (stereo not drawn) [CBK063187T], the viability at 28.5 h, 10 µM was 92.9%.
For COc1ccc([C@@]23CC[C@H](NC(=O)Nc4cccc(C(F)(F)F)c4F)C[C@@H]2CN(C)C3)cc1OC [CBK063200A], the viability at 28.5 h, 10 µM was 92.3%.
Molecule CCCCc1ccc(NC(=O)Nc2ccc3ccc(Cl)nc3n2)cc1 [CBK063259] has a viability at 28.5 h, 10 µM of 114%.
For O=C(Nc1cc2ccccc2c(Br)n1)N[C@@H]1C[C@H]1c1ccccc1 [CBK063276], the viability at 28.5 h, 10 µM was 92.3%.
Molecule O=C(Nc1cc2ccccc2c(Br)n1)Nc1ccc(F)cc1C(F)(F)F [CBK063278] has a viability at 28.5 h, 10 µM of 96.3%.
Work on CCOC(=O)CNC(=O)Nc1cc2ccccc2c(Br)n1 [CBK063279] yielded a viability at 28.5 h, 10 µM of 92.5%.
O=C(NCCc1ccccc1)Nc1cc2cccnc2c(Br)n1 [CBK063283] gave a viability at 28.5 h, 10 µM of 95.9%.
COc1ccc(NC(=O)Nc2cc3cccnc3c(Br)n2)c(C)c1 [CBK063294] gave a viability at 28.5 h, 10 µM of 96.8%.
O=C(Nc1cc2ccccc2c(Br)n1)c1ccc(C(F)(F)F)cc1[N+](=O)[O-] [CBK063299] gave a viability at 28.5 h, 10 µM of 92.5%.
Cc1ccc(S(=O)(=O)NCC(=O)Nc2cc3ccccc3c(Br)n2)cc1 [CBK063300] gave a viability at 28.5 h, 10 µM of 101%.
In the case of O=C(Nc1cc2ccccc2c(Br)n1)C(F)(F)F [CBK063301], the viability at 28.5 h, 10 µM was 82%.
In the case of CC(=O)N[C@@H](Cc1c[nH]cn1)C(=O)Nc1cc2ccccc2c(Br)n1 [CBK063302], the viability at 28.5 h, 10 µM was 91.3%.
For Cc1ccc(S(=O)(=O)n2ccc3ccc(N4CCN(C)CC4)nc32)cc1 [CBK063327], the viability at 28.5 h, 10 µM was 84%.
Nc1ncc(-c2cccnc2)nc1NCc1ccccc1 [CBK063349] showed a viability at 28.5 h, 10 µM of 102%.
In the case of COc1cncc(-c2cnc(N)c(N3CCOCC3)n2)c1 [CBK063360], the viability at 28.5 h, 10 µM was 96.7%.
Work on CN1CCN(c2nc(-c3ccoc3)cnc2N)CC1 [CBK063362] yielded a viability at 28.5 h, 10 µM of 103%.
In the case of COc1cc(-c2cnc(N)c(N3CCC(C(=O)O)CC3)n2)cc(OC)c1OC [CBK063365], the viability at 28.5 h, 10 µM was 98.9%.
Nc1ncc(-c2cccc3cccnc23)nc1N1CCOCC1 [CBK063383] showed a viability at 28.5 h, 10 µM of 93.2%.
COc1ccc(C(C)C)cc1-c1cnc(N)c(N2CCOCC2)n1 [CBK063384] gave a viability at 28.5 h, 10 µM of 92.1%.
Nc1ncc(-c2ccc(N3CCOCC3)cc2)nc1N1CCN(CCO)CC1 [CBK063394] gave a viability at 28.5 h, 10 µM of 95.8%.
CCCC/C=C/c1cnc(N)c(N2CCOCC2)n1 [CBK063398] showed a viability at 28.5 h, 10 µM of 98.1%.
COc1ccccc1-c1cnc(N)c(N2CCN(CCO)CC2)n1 [CBK063403] gave a viability at 28.5 h, 10 µM of 96.1%.
Work on Nc1ncc(-c2cc(C(F)(F)F)cc(C(F)(F)F)c2)nc1N1CCN(CCO)CC1 [CBK063426] yielded a viability at 28.5 h, 10 µM of 103%.
For Nc1ncc(-c2ccoc2)nc1N1CCN(CCO)CC1 [CBK063428], the viability at 28.5 h, 10 µM was 98.8%.
CC(=O)c1ccc(-c2cnc(N)c(N3CCN(C)CC3)n2)s1 [CBK063432] showed a viability at 28.5 h, 10 µM of 94.4%.
Molecule CN1CCN(c2nc(-c3cccc(F)c3)cnc2N)CC1 [CBK063433] has a viability at 28.5 h, 10 µM of 100%.
Molecule Nc1ncc(-c2cccc(OC(F)(F)F)c2)nc1N1CCN(CCO)CC1 [CBK063435] has a viability at 28.5 h, 10 µM of 94.9%.
CC(=O)c1ccc(-c2cnc(N)c(N3CCC[C@@H]3CO)n2)s1 [CBK063438] gave a viability at 28.5 h, 10 µM of 97.9%.
For Nc1ncc(-c2ccco2)nc1N1CCC(C(=O)O)CC1 [CBK063440], the viability at 28.5 h, 10 µM was 87%.
For Nc1ncc(-c2cccc3ncccc23)nc1N1CCC[C@@H]1CO [CBK063441], the viability at 28.5 h, 10 µM was 105%.
Work on Nc1ncc(-c2ccco2)nc1N1CCOCC1 [CBK063456] yielded a viability at 28.5 h, 10 µM of 80.2%.
For CN(C)CCN1CCN(c2nc(-c3ccc(S(C)(=O)=O)cc3)cnc2N)CC1 [CBK063457], the viability at 28.5 h, 10 µM was 100%.
CC(C)(CO)CNc1nc(-c2ccc3c(c2)OCO3)cnc1N [CBK063459] showed a viability at 28.5 h, 10 µM of 105%.
Molecule CN(C)CCN1CCN(c2nc(-c3cccc4cccnc34)cnc2N)CC1 [CBK063464] has a viability at 28.5 h, 10 µM of 94.3%.
Molecule CC(=O)Nc1cccc(-c2cnc(N)c(N3CCN(CCN(C)C)CC3)n2)c1 [CBK063472] has a viability at 28.5 h, 10 µM of 91.1%.
For COCCNc1nc(-c2cccc(-c3ccccc3)c2)cnc1N [CBK063474], the viability at 28.5 h, 10 µM was 99.5%.
For CC(C)(CO)CNc1nc(-c2cccnc2)cnc1N [CBK063475], the viability at 28.5 h, 10 µM was 100%.
CC(C)(CO)CNc1nc(-c2ccc(F)c(Cl)c2)cnc1N [CBK063484] gave a viability at 28.5 h, 10 µM of 102%.
In the case of COc1cc(-c2cnc(N)c(N3CCN(CCN(C)C)CC3)n2)cc(OC)c1OC [CBK063488], the viability at 28.5 h, 10 µM was 94.4%.
For COc1ccc(-c2cnc(N)c(N3CCN(C)CC3)n2)c(OC)c1OC [CBK063489], the viability at 28.5 h, 10 µM was 103%.
In the case of CC(C)(CO)CNc1nc(-c2cc(C(F)(F)F)cc(C(F)(F)F)c2)cnc1N [CBK063490], the viability at 28.5 h, 10 µM was 101%.
Nc1ncc(-c2cccc(-c3ccccc3)c2)nc1NCc1cccnc1 [CBK063491] gave a viability at 28.5 h, 10 µM of 93.5%.
In the case of CC(C)(CO)CNc1nc(-c2ccsc2)cnc1N [CBK063499], the viability at 28.5 h, 10 µM was 103%.
Molecule Nc1ncc(-c2cc(C(F)(F)F)cc(C(F)(F)F)c2)nc1N1CCC[C@@H]1CO [CBK063501] has a viability at 28.5 h, 10 µM of 93.3%.
For CN(C)CCN1CCN(c2nc(-c3cccnc3)cnc2N)CC1 [CBK063503], the viability at 28.5 h, 10 µM was 93.6%.
COc1cncc(-c2cnc(N)c(NCc3cccnc3)n2)c1 [CBK063531] showed a viability at 28.5 h, 10 µM of 110%.
Work on CN(C)CCN1CCN(c2nc(-c3cccc(C(N)=O)c3)cnc2N)CC1 [CBK063537] yielded a viability at 28.5 h, 10 µM of 97.8%.
Nc1ncc(-c2cc(C(F)(F)F)cc(C(F)(F)F)c2)nc1NCCCO [CBK063546] gave a viability at 28.5 h, 10 µM of 105%.
Molecule COCCNc1nc(-c2cc(OC)c(OC)c(OC)c2)cnc1N [CBK063559] has a viability at 28.5 h, 10 µM of 112%.
Work on CC(=O)Nc1cccc(-c2cnc(N)c(NCc3cccnc3)n2)c1 [CBK063562] yielded a viability at 28.5 h, 10 µM of 103%.
With Nc1ncc(-c2cccc3ccccc23)nc1NCc1ccccc1 [CBK063565] the viability at 28.5 h, 10 µM was 99%.
Nc1ncc(-c2ccc(-c3ccccc3)cc2)nc1NC1CCCCC1 [CBK063572] gave a viability at 28.5 h, 10 µM of 87.3%.
In the case of COCCNc1nc(-c2ccccc2CO)cnc1N [CBK063575], the viability at 28.5 h, 10 µM was 108%.
With CN(C)CCNc1nc(-c2ccncc2)cnc1N [CBK063580] the viability at 28.5 h, 10 µM was 102%.
Work on COc1ccc(Nc2nc(-c3cccc(N)c3)cnc2N)cc1 [CBK063585] yielded a viability at 28.5 h, 10 µM of 95.9%.
For CS(=O)(=O)c1ccc(-c2cnc(N)c(NCCCO)n2)cc1 [CBK063587], the viability at 28.5 h, 10 µM was 87.3%.
Work on COCCNc1nc(-c2ccc(F)cc2)cnc1N [CBK063591] yielded a viability at 28.5 h, 10 µM of 116%.
With COc1ccc(Nc2nc(-c3cccc(-c4ccccc4)c3)cnc2N)cc1 [CBK063593] the viability at 28.5 h, 10 µM was 89.8%.
Molecule Nc1ncc(-c2cccc(Br)c2)nc1NCCCO [CBK063603] has a viability at 28.5 h, 10 µM of 91.3%.
In the case of Nc1ncc(-c2ccncc2)nc1NC1CCCCC1 [CBK063604], the viability at 28.5 h, 10 µM was 80.9%.
In the case of COCCNc1nc(-c2cncc(OC)c2)cnc1N [CBK063606], the viability at 28.5 h, 10 µM was 103%.
Molecule Nc1ncc(-c2cccc3cccnc23)nc1NC1CCCCC1 [CBK063613] has a viability at 28.5 h, 10 µM of 107%.
For COc1ccc(C(C)C)cc1-c1cnc(N)c(NC2CCCCC2)n1 [CBK063618], the viability at 28.5 h, 10 µM was 108%.
With COc1ccc(C(C)C)cc1-c1cnc(N)c(NCCCN2CCOCC2)n1 [CBK063625] the viability at 28.5 h, 10 µM was 79.4%.
COc1cc(-c2cnc(N)c(NCc3ccncc3)n2)cc(OC)c1OC [CBK063646] showed a viability at 28.5 h, 10 µM of 94.8%.
CS(=O)(=O)c1ccc(-c2cnc(N)c(NCc3ccncc3)n2)cc1 [CBK063647] gave a viability at 28.5 h, 10 µM of 105%.
Work on Nc1ncc(-c2cccc(CO)c2)nc1NC1CCCCC1 [CBK063650] yielded a viability at 28.5 h, 10 µM of 101%.
Nc1ncc(-c2cc(C(F)(F)F)cc(C(F)(F)F)c2)nc1Nc1ccc2[nH]ccc2c1 [CBK063651] gave a viability at 28.5 h, 10 µM of 71.9%.
For Nc1ncc(-c2ccoc2)nc1NCc1ccco1 [CBK063652], the viability at 28.5 h, 10 µM was 97.2%.
CC(=O)Nc1cccc(-c2cnc(N)c(N3CCC(C(=O)O)CC3)n2)c1 [CBK063657] gave a viability at 28.5 h, 10 µM of 98.9%.
With CN(C)CCNc1nc(-c2cncnc2)cnc1N [CBK063661] the viability at 28.5 h, 10 µM was 97.8%.
Nc1ncc(-c2cccc(/C=C/C(=O)O)c2)nc1N1CCN(CCO)CC1 [CBK063665] showed a viability at 28.5 h, 10 µM of 98.7%.
Molecule Nc1ncc(-c2ccc(O)cc2)nc1N1CCC[C@@H]1CO [CBK063669] has a viability at 28.5 h, 10 µM of 91.7%.
For Nc1ncc(-c2cccc(O)c2)nc1NCc1ccco1 [CBK063675], the viability at 28.5 h, 10 µM was 92.1%.
Molecule COc1ccc(-c2cnc(N)c(NCCCN3CCOCC3)n2)c(OC)c1OC [CBK063676] has a viability at 28.5 h, 10 µM of 113%.
COc1cccc(-c2cnc(N)c(NCc3ccco3)n2)c1 [CBK063684] gave a viability at 28.5 h, 10 µM of 99.6%.
For Nc1ncc(-c2cc(C(F)(F)F)cc(C(F)(F)F)c2)nc1NCc1ccco1 [CBK063689], the viability at 28.5 h, 10 µM was 91.6%.
For CN(C)CCNc1nc(-c2cccc3ncccc23)cnc1N [CBK063693], the viability at 28.5 h, 10 µM was 102%.
Molecule COc1ccc(C(C)C)cc1-c1cnc(N)c(NCc2ccncc2)n1 [CBK063695] has a viability at 28.5 h, 10 µM of 97.5%.
In the case of C[C@@H](Nc1nc(-c2cccc(-c3ccccc3)c2)cnc1N)c1ccccc1 [CBK063704], the viability at 28.5 h, 10 µM was 96.3%.
